Data published in patent publication US11998632B2, “Oral cannabinoid compositions and methods for treating neuropathic pain” (Avicanna Inc., priority 2019, dated 2024).

Experiment: Assessment of stability: cannabinoid concentrations by HPLC on stored capsules
Details: 40-day incubation at 40° C., dark conditions

Compound | stability of cannabinoid in the formulations (HPLC)
C=C(C)[C@@H]1CCC(C)=C[C@H]1c1c(O)cc(CCCCC)cc1O [CBD, cannabidiol] | remains stable
CCCCCc1cc(O)c2c(c1)OC(C)(C)[C@@H]1CCC(C)=C[C@@H]21 [THC, Tetrahydrocannabinol] | degrades significantly
